How the values were obtained:
[1] = compared with clopidogrel; cited from earlier work
P2Y12 ADP receptor = P2Y12 ADP receptor (Homo sapiens, UniProt Q9H244); details: cited from earlier work
[2] = cited from earlier work
preformed thrombi = assay: Thrombus stability / dethrombosis of preformed thrombi; type: cell-based
Text: The addition of a TP antagonist to preformed thrombi caused dethrombosis (FIG. 5A).

platelets [3] = details: cited from earlier work
leukotrienes = assay: In vivo determination of the levels of leukotrienes; set-up: species or system mice; details: Example 5; treated animals
Text: In vivo monitoring of gastrointestinal bleeding and determination of the levels of leukotrienes will be performed.

platelets [4] = assay: Collagen-induced platelet aggregation (light transmittance aggregometry); type: cell-based, human; details: for anti-aggregatory activity, collagen-induced platelet aggregation: 1 μM, 100 nM, 350 nM
Method: PRP-induced platelet aggregation are performed with arachidonic acid (between 200 μM and 1 mM), U46619 (a TP agonist) (between 0.5 μM and 5 μM) and collagen (around 4 μg/ml) as platelet agonists. Indomethacin and
(§1) Light transmittance aggregometry (LTA) assays were performed by standard procedures, initiating platelet aggregation with collagen or arachidonic acid.

[5] = tested on: platelet recruitment on the injured vessel wall; assay: Intravital microscopy, ferric chloride injury of mesenteric arteries; type: in vivo, mice; details: Example 5; for antithrombotic activity in P2Y12 heterozygous animals: P2Y12 heterozygous mice; for antithrombotic activity in wild type animals: wild type mice
Method: The methodology utilized is intravital microscopy. In this system, injury of the mesenteric arteries is performed by topical application of a filter paper that has been previously soaked into a ferric chloride solution. Monitoring of the recruitment of fluorescently labeled platelets on the injured vessel wall is performed in real time using an inverted fluorescent microscope connected to a computer.

platelets [6] = assay: Arachidonic acid-induced platelet aggregation (light transmittance aggregometry); type: cell-based, human; details: healthy volunteers and AERD patients; 1 μM, 350 nM, 100 nM; FIGS. 10A and 10B
Method: as §1

[7] = tested on: platelets recruited on the collagen surface; assay: Real time perfusion chamber thrombosis assay (whole blood over collagen-coated chamber, fluorescent platelets); type: cell-based, human; details: for interaction with antithrombotic activity of clopidogrel: 12 healthy individuals on clopidogrel 75 mg/d, ifetroban spiked into whole blood, aspirin 325 mg/d over the third week; for antithrombotic activity versus aspirin: 100 nM or 350 nM spiked in vitro
Method: The experiment was performed by perfusing whole blood anticoagulated with factor Xa inhibitor (10 μM) through a human collagen type III-coated perfusion chamber. Platelets were fluorescently labeled in vitro using Rhodamine 6G (1.25 μg/ml final concentration), and thrombosis was monitored in real time by measuring the amount of fluorescent platelets recruited on the collagen surface using fluorescence microscopy. The results are depicted in FIG. 3.
The experiments are performed in the real time thrombosis perfusion chamber device. In this system, the real time thrombotic process triggered by perfusion of Factor Xa anticoagulated whole blood is studied using a collagen coated perfusion chamber at arterial shear rates.
A dose response study of the antithrombotic and anti-aggregatory effects of vehicle control, indomethacin (from 10 nM to 10 uM), and ifetroban (from 10 nM to 3 uM) spiked in vitro in the blood of aspirin-intolerant individuals before, and after treatment with clopidogrel (75 mg/d for a minimum of 5 days, n≧10) is performed. Experiments are performed in the real time perfusion chamber assay under arterial shear rates conditions. […] By using indomethacin we can confirm that Cox-1 inhibition indeed can provide additional antithrombotic properties; however, the intolerance prevents the use of a COX-1 inhibitor.
Real time perfusion chamber assays (RTTP) were performed using blood anticoagulated with Fxa inhibitor (10 uM 034) and perfused through collagen-coated capillaries (1100/sec). Thrombus formation on the collagen surface was monitored in real time using fluorescence microscopy to detect fluorescently labeled (R6G) platelets.

[8] = Gresele et al.; cited from earlier work
coronary arteries = coronary arteries of dogs; cited from earlier work
[9] = HOT trial, hypertensive patients, 75 mg/d vs placebo

Chain of P2Y12 ADP receptor (Q9H244 whole entry): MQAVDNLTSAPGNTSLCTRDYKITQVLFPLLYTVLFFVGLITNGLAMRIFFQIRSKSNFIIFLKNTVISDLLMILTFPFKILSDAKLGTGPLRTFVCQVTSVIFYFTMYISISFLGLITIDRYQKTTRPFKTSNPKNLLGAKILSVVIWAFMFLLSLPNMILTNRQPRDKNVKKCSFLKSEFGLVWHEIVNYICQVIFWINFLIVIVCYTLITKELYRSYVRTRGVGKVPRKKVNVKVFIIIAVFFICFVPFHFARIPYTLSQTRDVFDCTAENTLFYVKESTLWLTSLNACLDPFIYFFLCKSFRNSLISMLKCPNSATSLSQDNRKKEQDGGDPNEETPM

CNc1cc2[nH]c(=O)n(-c3ccc(NC(=O)NS(=O)(=O)c4ccc(Cl)s4)cc3)c(=O)c2cc1F
pharmacokinetic properties [1]: superior pharmacokinetic properties to clopidogrel
de-aggregation of preformed thrombi (P2Y12 ADP receptor): de-aggregate preformed thrombi
inhibition of ADP-mediated platelet aggregation (P2Y12 ADP receptor): reversible inhibitor

O=C(O)CC/C=C\CC[C@@H]1[C@@H](N2CCCCC2)[C@@H](O)C[C@@H]1OCc1ccc(-c2ccccc2)cc1 [GR 32191, [1R-[1α(Z),2β,3β,5α]]-(+)-7-[5-([1,1′-biphenyl]-4-ylmethoxy)-3-hydroxy-2-(1-piperidinyl)cyclopentyl]-4-heptenoic acid]
prevention of restenosis ([2]; CARPORT trial): lack activity in the prevention of restenosis

CCCCC[C@H](O)/C=C/[C@H]1C(=O)C[C@H](O)[C@@H]1C/C=C\CCCC(=O)O [PGD2, prostaglandin D2]
dethrombotic activity (preformed thrombi; physiological concentrations added to aspirinated blood, FIG. 5C): induced a profound dethrombotic activity

O=C(O)COc1ccc(CCNS(=O)(=O)c2ccccc2)cc1 [Sulotroban]
restenosis following PTCA ([2]; M-HEART-II study, 752 patients): no different than aspirin or placebo
clinical events (death, MI or clinically important restenosis) ([2]; M-HEART-II study): inferior to aspirin

CCCCC[C@H](O)/C=C/[C@@H]1[C@@H](C/C=C\CCCC(=O)O)[C@H]2CO[C@@H]1C2 [U46619]
thrombus stability (preformed thrombi; TXA2 mimetic, FIG. 5B): can promote thrombus stability

COC(=O)[C@H](c1ccccc1Cl)N1CCc2sccc2C1 [clopidogrel]
efficacy versus aspirin ([2]; CAPRIE trial): more efficacious than aspirin
relative risk reduction ([2]; CURE trial, clopidogrel with aspirin vs placebo plus aspirin, unstable angina or non-ST segment elevation MI): 20%

CC(C)Cc1ccc(C(C)C(=O)O)cc1 (stereo not shown) [ibuprofen]
effect of concomitant administration on antiaggregatory activity of aspirin (platelets [3]; Catella-Lawson et al.): reduce the antiaggregatory activity of aspirin

CCCCCNC(=O)c1coc([C@H]2[C@@H](Cc3ccccc3CCC(=O)[O-])[C@@H]3CC[C@H]2O3)n1.[Na+] [ifetroban, [1S-(1α,2α,3α,4α)]-2-[[3-[4-[(pentylamino)carbonyl]-2-oxazolyl]-7-oxabicyclo[2.2.1]hept-2-yl]methyl]benzenepropanoic acid]
levels of leukotrienes (leukotrienes): maintained constant
anti-aggregatory activity, collagen-induced platelet aggregation (platelets [4]; AERD patients, FIG. 8B): significant anti-aggregatory activity
concentrations at which aspirin effects on collagen-induced platelet aggregation and thrombosis were reproduced (platelets [4]; AERD patients, FIG. 8B): > 100 nM
anti-aggregatory activity, collagen-induced platelet aggregation (platelets [4]; healthy volunteers, FIG. 8A): significant anti-aggregatory activity
concentrations at which aspirin effects on collagen-induced platelet aggregation and thrombosis were reproduced (platelets [4]; normal volunteers, FIG. 8A): > 100 nM
antithrombotic activity in P2Y12 heterozygous animals [5]: profound inhibition
antithrombotic activity in wild type animals [5]: at least similar antithrombotic activity
anti-aggregatory activity, arachidonic acid-induced platelet aggregation (platelets [6]): anti-aggregatory activity
inhibition of thrombosis on a clopidogrel background ([7]; 30 nM to 1 μM spiked into whole blood of normal volunteers treated with clopidogrel 75 mg/day for 2 weeks, FIG. 4): inhibited thrombosis to the same extent as aspirin
interaction with antithrombotic activity of clopidogrel ([7]; FIG. 4): synergized with the antithrombotic activity of clopidogrel
antithrombotic activity versus aspirin ([7]; AERD patients, aspirin after desensitization, FIG. 7B): significant antithrombotic activity versus aspirin
antithrombotic activity versus aspirin ([7]; healthy volunteers, FIG. 7A): significant antithrombotic activity versus aspirin

COc1ccc2c(c1)c(CC(=O)O)c(C)n2C(=O)c1ccc(Cl)cc1 [indomethacin]
effect on bleeding time prolongation activity of BM 13.177 promoted by dazoxiben [8]: blocked the ability of dazoxiben

O=C(O)CCCCO/N=C(/c1cccnc1)c1cccc(C(F)(F)F)c1 [ridogrel]
enhancing fibrinolytic efficacy of streptokinase ([2]; RAPT study, 907 patients with acute myocardial infarction): not found to be superior to aspirin
preventing new ischaemic events ([2]; RAPT study): may have been more efficacious than aspirin

CC(C)(C)N/C(=N\C#N)Nc1cccc(/C(=C\CCCC(=O)O)c2cccnc2)c1 [terbogrel, 5-hexenoic acid, 6-[3-[[(cyanoamino)[(1,1-dimethylethyl)amino]methylene]amino]phenyl]-6-(3-pyridinyl)-, (E-)]
antiaggregatory activities in aspirin-treated individuals (platelets [3]; Zimmermann et al.): additional antiaggregatory activities

ortho-acetylsalicylic acid [aspirin]
effect of prior aspirin treatment on dethrombotic activity of a TP antagonist (preformed thrombi; FIG. 5C): prevented by prior aspirin treatment
levels of leukotrienes (leukotrienes): increased
effect on prolongation in occlusion time by U63,557a with L636,499 (coronary arteries): inhibited the prolongation in occlusion time
antithrombotic activity in P2Y12 heterozygous animals [5]: profound inhibition
antithrombotic activity in wild type animals [5]: at least similar antithrombotic activity
individuals developing gastroduodenal ulcers ([2]; 75-325 mg doses): 1 out of 10
reduction in vascular events ([2]; Antithrombotic Trialist's Collaboration, overall): 22%
reduction in cardiovascular events [2, 9]: 15%
reduction in myocardial infarction [2, 9]: 36%
incidence of cardiovascular death ([2]; Primary Prevention Project, 100 mg/d, at-risk patients, reduced from 1.4%): 0.8%
reduction in adverse events ([2]; hundreds of randomized clinical trials, at-risk patients): 20-25%
asthmatic adults developing severe bronchoconstriction ([2]; oral challenge with aspirin or NSAID): 5-20%
interaction with antithrombotic activity of clopidogrel ([7]; FIG. 4): synergized with the antithrombotic activity of clopidogrel
